This is an account of results in ChEMBL document CHEMBL5316307, “Searching for Novel Noncovalent Nuclear Export Inhibitors through a Drug Repurposing Approach” (J Med Chem, 2023).

Broadly, the IC50 is the concentration that gives 50% inhibition. As usually defined, the Kd is the constant that tells how readily two partners part at equilibrium.

Activity calls are given as the source filed them. No cut-off for these calls is given here.

For one data set, the system named is HGC-27. Put plainly: Cytotoxicity against human HGC-27 cells assessed as inhibition of cell growth incubated for 72 hrs by SRB assay. It is filed as functional, cell-based. Particulars: HGC-27, 72 h.
Data set [1] in a line: Stability of the compound at 100 uM in presence of DTT. Format: physicochemical.
In data set [2] the target is T1, Exportin-1 (Homo sapiens, UniProt O14980). Briefly: Inhibition of human CRM1 at 3 to 30 uM by GST-NES MVM based pulldown assay. Particulars: dose 3-30 µM.
T1 sequence (O14980 whole entry): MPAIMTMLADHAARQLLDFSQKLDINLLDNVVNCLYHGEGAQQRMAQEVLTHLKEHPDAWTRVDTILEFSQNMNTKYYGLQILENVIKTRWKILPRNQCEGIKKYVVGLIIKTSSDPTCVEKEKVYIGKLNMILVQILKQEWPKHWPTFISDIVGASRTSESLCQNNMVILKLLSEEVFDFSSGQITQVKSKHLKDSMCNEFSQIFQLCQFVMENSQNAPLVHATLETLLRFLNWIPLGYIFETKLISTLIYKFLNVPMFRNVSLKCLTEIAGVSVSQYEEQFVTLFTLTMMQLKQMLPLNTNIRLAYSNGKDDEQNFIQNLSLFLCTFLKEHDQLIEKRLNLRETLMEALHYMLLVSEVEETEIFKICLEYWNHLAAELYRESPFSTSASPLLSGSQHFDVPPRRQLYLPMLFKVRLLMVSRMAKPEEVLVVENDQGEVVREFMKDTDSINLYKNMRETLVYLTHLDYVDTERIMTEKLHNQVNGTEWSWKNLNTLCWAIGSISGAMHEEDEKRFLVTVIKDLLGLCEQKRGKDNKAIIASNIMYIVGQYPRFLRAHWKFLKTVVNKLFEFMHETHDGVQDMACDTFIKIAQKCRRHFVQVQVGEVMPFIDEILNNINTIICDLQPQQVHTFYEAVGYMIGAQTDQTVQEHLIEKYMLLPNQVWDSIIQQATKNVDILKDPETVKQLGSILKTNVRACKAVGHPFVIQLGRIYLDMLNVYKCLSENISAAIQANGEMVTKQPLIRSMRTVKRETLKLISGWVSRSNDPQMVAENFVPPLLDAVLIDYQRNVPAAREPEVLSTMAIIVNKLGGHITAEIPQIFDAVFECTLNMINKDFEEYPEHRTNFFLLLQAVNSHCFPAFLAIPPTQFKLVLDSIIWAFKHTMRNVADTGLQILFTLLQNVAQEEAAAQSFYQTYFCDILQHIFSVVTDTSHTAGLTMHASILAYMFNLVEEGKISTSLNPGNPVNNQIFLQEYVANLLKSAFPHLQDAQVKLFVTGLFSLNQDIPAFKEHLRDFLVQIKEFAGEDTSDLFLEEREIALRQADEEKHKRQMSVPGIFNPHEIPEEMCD
Data set [3] addresses T1, Exportin-1. Put plainly: Non-covalent inhibition of human CRM1 at 100 uM by GST-NES MVM based pulldown assay.
Data set [4] deals with T1, Exportin-1. Briefly: Inhibition of CRM1 in semi-permeabilized human HeLa cells transfected with GFP-NES-NLS fusion plasmid assessed as inhibition of nuclear export of cargoes at 50 to 100 uM incubated for 30 mins by immunostaining analysis. Format: cell-based. The conditions noted are these: dose 50-100 µM.
The subject of the next data set is A2780. Briefly: Cytotoxicity against human A2780 cells assessed as inhibition of cell growth at 50 uM incubated for 72 hrs by SRB assay. It is filed as functional, cell-based. For orientation: Sulforhodamine B stains cellular protein and so reports cell mass.
Data set [5] deals with T1, Exportin-1. Put plainly: Binding affinity to CRM1 in human HeLa cells assessed as thermal stabilization at 100 uM at 4 to 90 degreeC incubated for 3 mins by […] analysis. Format: cell-based.
For data set [6], the system named is MDA-MB-453. Briefly: Synergistic cytotoxicity against human MDA-MB-453 cells assessed as combination index at 100 uM incubated for 3 days in presence of 10 nM doxorubicin by SRB assay. It is filed as functional. Particulars: time 3 day.
Data set [7] deals with MDA-MB-453. Put plainly: Synergistic cytotoxicity against human MDA-MB-453 cells assessed as combination index at 100 uM incubated for 3 days in presence of 810 nM doxorubicin by SRB assay. Particulars: time 3 day. Format: functional.
Data set [8] deals with T1, Exportin-1. Put plainly: Competitive inhibition of human CRM1 assessed as dissociation constant incubated in presence of RanGTP and IAF-conjugated protein kinase inhibitor peptide by MST assay.
Data set [9] concerns the target T1, Exportin-1. Put plainly: Binding affinity to NES groove of human CRM1 C7 fragment at 50 to 100 uM by GST-NES MVM based pulldown assay. The conditions noted are these: dose 50-100 µM.
The test system of another data set is MGC-803. Briefly: Cytotoxicity against human MGC-803 cells assessed as inhibition of cell growth at 50 uM incubated for 72 hrs by SRB assay. Format: functional, cell-based.
For another data set, the system named is HeLa. Put plainly: Cytotoxicity against human HeLa cells assessed as inhibition of cell growth at 50 uM incubated for 72 hrs by SRB assay. It is filed as functional, cell-based.
The test system of a further data set is PANC-1. Put plainly: Cytotoxicity against human PANC-1 cells assessed as inhibition of cell growth at 50 uM incubated for 72 hrs by SRB assay. It is filed as functional, cell-based.
The next data set deals with SW480. Put plainly: Cytotoxicity against human SW480 cells assessed as inhibition of cell growth at 50 uM incubated for 72 hrs by SRB assay. Format: functional, cell-based.
Data set [10] has as its system MDA-MB-453. Briefly: Synergistic cytotoxicity against human MDA-MB-453 cells assessed as combination index at 100 uM incubated for 3 days in presence of 90 nM doxorubicin by SRB assay. It is filed as functional. The conditions noted are these: time 3 day.
In data set [11] the test system is Exportin-1 (Homo sapiens), O14980 [C528S]. Put plainly: Inhibition of human CRM1 C7 fragment C528S mutant at 50 to 100 uM by GST-NES MVM based pulldown assay. Particulars: dose 50-100 µM.
Sequence of Exportin-1 (Homo sapiens), O14980 [C528S] (O14980 whole entry C528S, the tested form may be a part): as the sequence (O14980 whole entry) above, with C528S counted along it
Data set [12] addresses T1, Exportin-1. Briefly: Inhibition of CRM1 in intact human HeLa cells transfected with GFP-NES-NLS fusion plasmid assessed as inhibition of nuclear export of cargoes at 200 uM incubated for 30 mins by immunostaining analysis. It is filed as cell-based.
The test system of data set [13] is MDA-MB-453. Briefly: Synergistic cytotoxicity against human MDA-MB-453 cells assessed as combination index at 100 uM incubated for 3 days in presence of 30 nM doxorubicin by SRB assay. It is filed as functional. The conditions noted are these: time 3 day.
The subject of data set [14] is MDA-MB-453. Briefly: Cytotoxicity against human MDA-MB-453 cells assessed as inhibition of cell growth at 50 uM incubated for 72 hrs by SRB assay. Format: functional, cell-based.
A further data set concerns HepG2. Put plainly: Cytotoxicity against human HepG2 cells assessed as inhibition of cell growth at 50 uM incubated for 72 hrs by SRB assay. Format: functional, cell-based.
The subject of data set [15] is MDA-MB-453. Put plainly: Synergistic cytotoxicity against human MDA-MB-453 cells assessed as combination index at 100 uM incubated for 3 days in presence of 270 nM doxorubicin by SRB assay. It is filed as functional. Particulars: time 3 day.
The next data set has as its system Ishikawa. Briefly: Cytotoxicity against human Ishikawa cells assessed as inhibition of cell growth at 50 uM incubated for 72 hrs by SRB assay. Format: functional, cell-based.
Data set [16] addresses T1, Exportin-1. Briefly: Inhibition of human CRM1 at 50 uM by GST-NES MVM based pulldown assay.

Consider `COc1cc(C(=O)NS(=O)(=O)c2ccc(C)cc2)ccc1Cc1cn(C)c2ccc(NC(=O)OC3CCCC3)cc12`, for which the IC50 in the data set with HGC-27 was determined as 44 µM.

In the case of `[2H]C([2H])([2H])N(C(=O)c1ccc(Cc2cn(C)c3ccc(NC(=O)OC4CCCC4)cc23)c(OC)c1)S(=O)(=O)c1ccccc1C`, the IC50 in the data set with HGC-27 is 457 µM.

On to `CC(C)CCNC/C=C/[S+]([O-])c1cc(C(F)(F)F)cc(C(F)(F)F)c1` (stereo unspecified), for which the Stability entry in [1] is “Unstable”.

On to `COc1cc(C(=O)NS(=O)(=O)c2cccc(C)c2)ccc1Cc1cn(C)c2ccc(NC(=O)OC3CCCC3)cc12`, for which, in the data set on HGC-27, the IC50 was 44 µM. In addition, the inhibition result on Exportin-1 [2] was “Active”.

Take `CC(O)(CS(=O)(=O)c1ccc(F)cc1)C(=O)Nc1ccc(C#N)c(C(F)(F)F)c1` (stereo unspecified): the inhibition entry on Exportin-1 [3] was “inactive”.

In the case of `COc1cc(C(=O)NS(=O)(=O)c2ccccc2C)ccc1Cc1cn(C)c2ccc(NC(=O)OC3CCCC3)cc12` [ZAFIRLUKAST], the inhibition result at Exportin-1 [4], in the data set on A2780, with MGC-803, with HeLa, in the data set on PANC-1 and in the data set with SW480 was “Active” in each case. The inhibition result on Exportin-1 [3], at Exportin-1 [12], with MDA-MB-453 [14], with HepG2 and in the data set on Ishikawa was “Active” each time. In addition, the outcome on Exportin-1 [5] and on Exportin-1 [9] was Active. For the same compound, in the data set with HGC-27, the IC50 was found to be 44 µM. Moreover, the CI is given as 0.78 in the data set with MDA-MB-453 [6]; 0.58 with MDA-MB-453 [7]; 0.78 with MDA-MB-453 [10]; 0.78 in the data set on MDA-MB-453 [13]; 0.88 in the data set on MDA-MB-453 [15]. Further, on Exportin-1 [8], the Kd was determined as 10 µM. Further, the inhibition entry in data set [11] is “inactive”. Also, in [1], the Stability entry is given as “Stable”.

For `O=C(/C=C\n1cnc(-c2cc(C(F)(F)F)cc(C(F)(F)F)c2)n1)NNc1cnccn1`, the inhibition entry in [11] is “Active”.

For `COc1cc(C(=O)N(C)S(=O)(=O)c2ccccc2C)ccc1Cc1cn(C)c2ccc(NC(=O)OC3CCCC3)cc12`, the result at Exportin-1 [5] was inactive. Besides, the half-inhibitory concentration (IC50) with HGC-27 was found to be 285 µM. Further, the inhibition result at Exportin-1 [16] and on Exportin-1 [16] (tested as the 2H-labelled form) was “inactive” each time.

Regarding `N[C@@H](CC(=O)N1CCn2c(nnc2C(F)(F)F)C1)Cc1cc(F)c(F)cc1F`, the inhibition entry on Exportin-1 [3] was “inactive”.

As for `COC(=O)Nc1ccc2c(c1)c(Cc1ccc(C(=O)NS(=O)(=O)c3ccccc3C)cc1OC)cn2C`, the IC50 in the data set with HGC-27 amounted to 44 µM. Also, the inhibition entry on Exportin-1 [2] was “Active”.
